Data taken from publication PMC5084695 (Biochemistry, 2016).

What was measured:
SbnA [1] = target: SbnA (Staphylococcus aureus, UniProt A6QDA0); experiment: coupled inorganic phosphate release assay; assay type: biochemical
SbnA [2] = target: SbnA (Staphylococcus aureus, UniProt A6QDA0, S185G); experiment: biochemical
SbnA [3] = target: SbnA (Staphylococcus aureus, UniProt A6QDA0, S185G/Y152F); experiment: biochemical

In the case of N[C@@H](CS)C(=O)O [L-cysteine], the Ki (SbnA [1]) is reported as 91 ± 16 µM, the Ki (SbnA [2]) is reported as 2100 ± 500 µM and the Kd (SbnA [3]) is reported as 8900 ± 3200 µM.
